Measured values: paper PMC13489962, “Small-molecule modulation of β-arrestins” (Nature, 2026)

Columns and labels:
[1] = system: AT1R desensitization (Ca2+); assay: Ca2+ mobilization in HEK293 cells stably expressing AT1R; format: cell-based, human; conditions: 10 μM, 30 min, ANGII 30 pM
Description: Intracellular (Ca^2+) release was measured using the FLIPR Calcium 6 assay kit with a FlexStation 3 microplate reader, following the manufacturer’s instructions (Molecular Devices) and as described previously. In brief, HEK293 cells stably expressing human angiotensin II type 1 receptor (AT1R), parental HEK293 cells transiently expressing AT1R, or HEK293 CRISPR–Cas9 βARR1/2-knockout cells transiently expressing AT1R were seeded in poly-D-lysine-coated, black 96-well assay plates at a density of 40,000 cells per well and incubated for 24 h. On the day of the experiment, cell plates were loaded with FLIPR Calcium 6 reagents and treated with β-arrestin small-molecule modulators (10 μM) or vehicle (DMSO) for 30 min. After establishing basal fluorescence (F0), the cells were treated with the agonist ANGII (30 pM for stably expressing AT1R or 120 pM for transiently expressing AT1R) while fluorescence intensity (F) was monitored in real time. These sub-maximal ANGII concentrations were empirically optimized to elicit moderate, temporally resolved Ca^2+ transients, allowing sufficient time for β-arrestin-mediated desensitization to develop prior to the peak response. The complete Ca^2+ transient profile was quantified by calculating the AUC over time. AUC values were normalized to the response to ANGII alone (set as 100%) to compare the effects of modulators relative to the agonist-alone control.

βARR1–JNK3 interaction = target: T1, βARR1–JNK3 interaction (Rattus norvegicus, UniProt P29066); assay: Flag pulldown of βARR1 with JNK3; format: biochemical; conditions: 20-fold molar excess of compound, 30 min
T1 construct: made in house
Description: To assess the effects of the compounds on βARR1 interactions with its effector proteins SRC and JNK3, βARR1–Flag (5 μM) was incubated with a 20-fold molar excess of Cmpd-5, Cmpd-46 or Cmpd-64 for 30 min at room temperature. Subsequently, 15 μM of SRC or JNK3 was added. To evaluate compound effects on βARR1–ERK2 binding, βARR1 (15 μM) was pre-incubated with a 20-fold molar excess of Cmpd-5, Cmpd-46 or Cmpd-64 for 30 min at room temperature, followed by the addition of 5 μM ERK2–Flag. Afterward, 50 μl of anti-Flag M2 affinity gel (Millipore Sigma) was added, and the mixtures were incubated for 1 h at room temperature with rotation. The resin was then collected by centrifugation and washed 3 times with 1 ml of 20 mM HEPES (pH 7.5), 100 mM NaCl. Bound proteins were eluted using 0.2 mg ml^−1 Flag peptide in 20 mM HEPES (pH 7.5), 100 mM NaCl, mixed with Laemmli sample buffer (Bio-Rad), and analysed by SDS–PAGE followed by western blotting. Detection was performed using monoclonal anti-Flag M2-peroxidase (HRP) antibody (1:2,000, Sigma-Aldrich A8592, RRID:AB_439702) for βARR1–Flag and ERK2–Flag; polyclonal A1CT antibody[76] (1:5,000) for βARR1; anti-SRC monoclonal antibody (1:10,000, EMD Millipore 05-184, RRID:AB_2302631) for SRC; and anti-JNK3 monoclonal antibody (1:5,000, Cell Signaling 2305, RRID:AB_2281744) for JNK3. Western blot images were taken using Bio-Rad ChemiDoc system and the densitometry analysis was performed by ImageLab v6.1 and statistical differences were determined by one-way ANOVA with Dunnett’s post hoc test in GraphPad Prism software.

[2] = system: adult ventricular cardiomyocytes (AT1R); assay: Adult ventricular cardiomyocyte contractility; format: cell-based, mouse; conditions: 25 μM, 20 min; TRV027 10 μM; paced at 1 Hz
Description: All animal experiments were approved by the Institutional Animal Care and Use Committee (IACUC) at Duke University Medical Center and performed in accordance with relevant guidelines and regulations. Ventricular cardiomyocytes were freshly isolated from 12- to 16-week-old C57BL/6J wild-type mice using a standard Langendorff perfusion system[39],[74]. The heart was initially cannulated through the aorta and then perfused with an oxygenated buffer at 37 °C (120 mM NaCl, 14.8 mM KCl, 0.6 mM KH2PO4, 0.6 mM Na2HPO4, 1.2 mM MgSO4·7H20, 10 mM HEPES, 4.6 mM NaHCO3, 30 mM taurine, and 5.6 mM glucose, pH 7.3). After 2 min, the buffer was switched to a digestion solution containing 2.4 mg ml^−1 collagenase (Worthington). Following 8 min of digestion, ventricles were transferred to a stopping buffer that included 10% calf serum. Myocytes were then manually dissociated and gradually brought to a physiological Ca^2+ concentration (1.2 mM). Isolated cardiomyocyte was first pretreated with DMSO (0.1%), C5, C46 or C64 (25 µM) for 20 min followed by treatment with HBSS (basal), angiotensin II (positive control, 10 µM) or TRV027 (10 µM). Cells were plated in a chamber (Ionoptix) on a Nikon Eclipse TE300 inverted microscope (40× 0.9 NA objective, MRF00400, Nikon). Cardiomyocytes were paced at 1 Hz and 20 V (MyoPacer, Ionoptix), and sarcomere length was recorded by a MyoCam-S camera (Ionoptix). Ten consecutive contractions per cell (7–12 cells per condition) were averaged to quantify contractility and kinetic parameters (IonWizard 7.2). […] Sample size represents the number of hearts at each condition derived from an average of 7–12 cells per heart for each condition. Statistical comparisons between conditions were performed using one-way ANOVA followed by Sidak post hoc test.

T1 sequence (P29066 whole entry): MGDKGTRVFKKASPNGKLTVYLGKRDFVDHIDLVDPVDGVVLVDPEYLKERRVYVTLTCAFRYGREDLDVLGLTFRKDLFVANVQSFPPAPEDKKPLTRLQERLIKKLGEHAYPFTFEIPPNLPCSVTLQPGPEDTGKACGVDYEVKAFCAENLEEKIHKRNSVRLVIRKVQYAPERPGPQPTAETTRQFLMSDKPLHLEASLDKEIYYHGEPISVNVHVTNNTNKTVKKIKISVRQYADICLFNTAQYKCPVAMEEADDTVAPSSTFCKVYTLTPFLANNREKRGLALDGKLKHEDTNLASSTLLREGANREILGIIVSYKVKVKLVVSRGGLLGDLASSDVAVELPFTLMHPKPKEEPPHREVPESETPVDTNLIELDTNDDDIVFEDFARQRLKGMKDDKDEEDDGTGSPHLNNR
T1 sequence (P53779 whole entry partner): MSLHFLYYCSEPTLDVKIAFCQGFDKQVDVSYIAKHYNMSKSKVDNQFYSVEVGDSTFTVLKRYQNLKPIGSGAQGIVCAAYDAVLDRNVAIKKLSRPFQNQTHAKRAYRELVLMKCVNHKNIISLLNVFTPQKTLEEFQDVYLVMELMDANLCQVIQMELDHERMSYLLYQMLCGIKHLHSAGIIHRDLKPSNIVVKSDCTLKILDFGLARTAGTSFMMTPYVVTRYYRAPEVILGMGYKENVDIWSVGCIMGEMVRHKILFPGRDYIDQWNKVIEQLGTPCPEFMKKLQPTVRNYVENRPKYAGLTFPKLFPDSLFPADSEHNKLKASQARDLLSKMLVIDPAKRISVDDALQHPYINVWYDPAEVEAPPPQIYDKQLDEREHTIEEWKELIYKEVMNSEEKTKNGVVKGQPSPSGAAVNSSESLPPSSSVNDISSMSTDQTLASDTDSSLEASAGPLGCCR

## C=C1C(=O)[C@]23[C@H](O)[C@H]1CC[C@H]2[C@@]12CO[C@]3(O)[C@@H](O)[C@@H]1C(C)(C)CC[C@@H]2O [Cmpd-5, (1S,4aR,5S,6S,6aR,9S,11aS,11bS,14R)-1,5,6,14-tetrahydroxy−4,4-dimethyl-8-methylenedecahydro-1H-6,11b-(epoxymethano)-6a,9-methanocyclohepta[a]naphthalen-7(8H)-one]
[1]
  ANGII-induced Ca2+ response (AUC) relative to DMSO (set to 100%): 279%
βARR1–JNK3 interaction
  effect on βARR1 binding to JNK3: minimal change
[2]
  effect on TRV027-enhanced sarcomere shortening, contraction and relaxation velocity: significantly inhibited

## C=C1C(=O)C2=CC1CCC(=O)C1(C)CCC(OCC)C(C)(C)C1CC2O (stereo not drawn) [Cmpd-46, (Z)-3-ethoxy-6-hydroxy-4,4,13a-trimethyl-9-methylene-1,2,3,4,4a,5,6,9,10,11,12,13a-dodecahydro-7,10-(metheno)benzo[11]annulene-8,13-dione]
[1]
  ANGII-induced Ca2+ response (AUC) relative to DMSO (set to 100%): 356%
βARR1–JNK3 interaction
  effect on βARR1 binding to JNK3: minimal change
[2]
  effect on TRV027-enhanced sarcomere shortening, contraction and relaxation velocity: significantly inhibited

## C=C1C(=O)OC2CC3(C)OC3CCC(C)=CC(OC(C)=O)C12 (stereo not drawn) [Cmpd-64, (Z)-4,10a-dimethyl-7-methylene-8-oxo-1a,2,3,6,6a,7,8,9a,10,10a decahydrooxireno[2’,3’:8,9]cyclodeca[1,2-b]furan-6-yl acetate]
[1]
  ANGII-induced Ca2+ response (AUC) relative to DMSO (set to 100%): 490%
βARR1–JNK3 interaction
  effect on βARR1 binding to JNK3: minimal change
[2]
  effect on TRV027-enhanced sarcomere shortening, contraction and relaxation velocity: significantly inhibited
